Article PMC11121450, “Evaluation of the Inhibitory Potential of Synthetic Peptides Homologous to CDR3 Regions of a Monoclonal Antibody against Bothropic Venom Serine Proteases” (International Journal of Molecular Sciences, 2024)
Residues, ends and D or L forms follow the SMILES beside them. No end group written: not given here.

Key:
[1] = test system: B. jararaca and B. atrox venoms; type: in vitro ADME, Bothrops jararaca; Bothrops atrox; details: incubation with B. jararaca and B. atrox venoms (0.1 µg of both venoms per table footnote; 90 ng and 20 ng per method), 50 µM peptide, 4 h, 37 °C, 100 mM Tris HCl, 20 mM NaCl, pH 7.4; RP-HPLC C-18, UV 214 nm; relative to β-chain of insulin
Procedure: To verify the stability of the synthetic peptides, they were incubated with both venoms, and tests were performed using reverse-phase liquid chromatography on a C-18 column. […] As a positive control, the β-chain of insulin was used, which is known to be a substrate for the SVSPs and SVMPs of bothropic venoms.
With the aim of verifying the possible hydrolysis of peptides by the studied venoms, the samples were prepared in 100 mM Tris-HCl, 20 mM NaCl, pH 7.4, final volume 100 µL, using 50 µM of each synthetic peptide, incubating them separately with the venoms of B. jararaca (90 ng) and B. atrox (20 ng) for 4 h at 37 °C, the same concentrations used in the enzymatic assays. A solution containing the β-chain of insulin (50 µM) was used as a positive control since it is a described substrate for SVSP from both venoms. The conditions for the HPLC (Shimadzu Prominence) analysis used 0.1% trifluoroacetic acid (TFA) in water (solvent A), and acetonitrile (ACN) and solvent A (9:1) as solvent B. The analyses occurred at a flow rate of 1 mL/min using a C-18 column (Shim-pack VP-ODS4.6 x 150 mm) and a gradient of 20–60% solvent B for 20 min. In all cases, 50 µL of each sample was injected and the absorbance was monitored at 214 nm.

[2] = target: elastase-1 (EC 3.4.21.36) (Sus scrofa, UniProt P00772); experiment: Inhibition of elastase-1, Abz-FRSSRQ-EDDnp substrate; type: biochemical; details: peptide 20 µM, 300 ng elastase-1, Abz-FRSSRQ-EDDnp 5 µM, Tris-HCl 50 mM, pH 8, 37 °C, quadruplicate
Procedure: Figure 8 Inhibitory activity assay against human thrombin (panel A), trypsin (panel B), and elastase-1 (panel C). The experiments were performed in a fluorimeter (Hidex 425-301, Turku, Finland), with readings adjusted for excitation and emission at 320 and 420 nm using Abz-FRSSRQ-EDDnp as a substrate. Assays were performed in quadruplicate, in Tris-HCl 50 mM, pH 8.0 (for trypsin and elastase-1 assays), and 100 mM Tris-HCl, 20 mM NaCl, pH 7.4, for human thrombin at 37 °C, using 1.7 ng/µL of trypsin, 300 ng/µL of human thrombin, and 300 ng of elastase-1. […]
To verify the selective inhibition of the SVTLE by the peptides, it was necessary to perform experiments with other serine proteases of physiological relevance. For this, the possible inhibition of elastase-1 (EC 3.4.21.36), trypsin (EC 3.4.21.4), and human thrombin (EC 3.4.21.5) was analyzed. […] The activities were assessed in 50 mM Tris-HCl, pH 8, for trypsin; Tris-HCl 50 mM, NaCl 50 mM, pH 8, for elastase-1; and 100 mM Tris-HCl, 20 mM NaCl, pH 7.4, for human thrombin (final volume of 100 µL), using 96-well plates (Corning) and the substrate Abz-FRSSRQ-EDDnp (5 µM). […] Assays were performed on a Hidex fluorimeter (425-301 Hidex, Turku, Finland), with the excitation and emission of fluorescence fixed at 320 and 420 nm, respectively. […] The readings occurred over 15 min at 1 min intervals. […]

[3] = target: human thrombin (Homo sapiens, UniProt P00734); experiment: Inhibition of human thrombin, Abz-FRSSRQ-EDDnp substrate; type: biochemical; details: for Ki: Dixon plot, three peptide concentrations including zero, thrombin 300 ng/µL, Abz-FRSSRQ-EDDnp substrate, read-out: inhibition constant (Ki) against human thrombin; for reduction of hydrolytic activity of thrombin: peptide 100 µM, 300 ng human thrombin, Abz-FRSSRQ-EDDnp 5 µM, 100 mM Tris-HCl, 20 mM NaCl, pH 7.4, 37 °C, quadruplicate
Procedure: Figure 8 Inhibitory activity assay against human thrombin (panel A), trypsin (panel B), and elastase-1 (panel C). The experiments were performed in a fluorimeter (Hidex 425-301, Turku, Finland), with readings adjusted for excitation and emission at 320 and 420 nm using Abz-FRSSRQ-EDDnp as a substrate. Assays were performed in quadruplicate, in Tris-HCl 50 mM, pH 8.0 (for trypsin and elastase-1 assays), and 100 mM Tris-HCl, 20 mM NaCl, pH 7.4, for human thrombin at 37 °C, using 1.7 ng/µL of trypsin, 300 ng/µL of human thrombin, and 300 ng of elastase-1. […] Panel (B): For these assays, the peptides were used at 100 µM, and CDR3 A and CDR3 E inhibited the substrate hydrolysis by thrombin by 34% and 100%, respectively. […] (****) p < 0.0001.
With the obtained velocities, curves were plotted on the Dixon plot (1/V versus [I]) (Figure 9).
Lines indicate a competitive mechanism of action. Kis of 61.77 µM (CDR3 A) and 55.75 (CDR3 E) were obtained. For the construction of the graph, the software GraphPad Prism 8 was used.
To verify the selective inhibition of the SVTLE by the peptides, it was necessary to perform experiments with other serine proteases of physiological relevance. For this, the possible inhibition of elastase-1 (EC 3.4.21.36), trypsin (EC 3.4.21.4), and human thrombin (EC 3.4.21.5) was analyzed. The evaluation of enzyme activities was performed as described above. The activities were assessed in 50 mM Tris-HCl, pH 8, for trypsin; Tris-HCl 50 mM, NaCl 50 mM, pH 8, for elastase-1; and 100 mM Tris-HCl, 20 mM NaCl, pH 7.4, for human thrombin (final volume of 100 µL), using 96-well plates (Corning) and the substrate Abz-FRSSRQ-EDDnp (5 µM). All reactions occurred at 37 °C using 1.7 ng of trypsin, 300 ng of human thrombin, and 300 ng of elastase-1. Assays were performed on a Hidex fluorimeter (425-301 Hidex, Turku, Finland), with the excitation and emission of fluorescence fixed at 320 and 420 nm, respectively. The trypsin and elastase-1 assays were performed using 20 µM of each peptide, and the human thrombin assays were performed using 100 µM. The readings occurred over 15 min at 1 min intervals. The experiments were performed in quadruplicate.

Sequence of elastase-1 (EC 3.4.21.36) (P00772 27-266): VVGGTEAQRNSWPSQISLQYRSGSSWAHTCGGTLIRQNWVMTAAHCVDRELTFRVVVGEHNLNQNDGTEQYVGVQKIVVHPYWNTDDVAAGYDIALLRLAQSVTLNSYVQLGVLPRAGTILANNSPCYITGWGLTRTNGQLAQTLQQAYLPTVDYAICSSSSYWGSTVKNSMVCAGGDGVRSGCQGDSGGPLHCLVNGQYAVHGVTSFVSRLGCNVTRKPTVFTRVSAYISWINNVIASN

`CC(C)C[C@H](NC(=O)[C@H](CC(N)=O)NC(=O)[C@H](Cc1ccc(O)cc1)NC(=O)[C@H](CO)NC(=O)[C@H](CCC(N)=O)NC(=O)[C@H](CCCCN)NC(=O)[C@H](CS)NC(=O)CNC(=O)[C@@H]1CCCN1C(=O)CNC(=O)CNC(=O)[C@H](Cc1ccc(O)cc1)NC(=O)[C@H](CC(=O)O)NC(=O)[C@H](Cc1ccccc1)NC(=O)[C@H](Cc1ccc(O)cc1)NC(=O)[C@H](Cc1ccc(O)cc1)NC(=O)CNC(=O)[C@H](CC(=O)O)NC(=O)[C@H](Cc1c[nH]c2ccccc12)NC(=O)[C@H](CC(=O)O)NC(=O)[C@H](CCCNC(=N)N)NC(=O)[C@H](CCCCN)NC(=O)[C@@H](N)CS)C(=O)N[C@@H](CCCNC(=N)N)C(=O)N[C@H](C(=O)O)[C@@H](C)O` [CDR3 D] (H-CKRDWDGYYFDYGGPGCKQSYNLRT-OH) was tested, and the “Relative Hydrolysis Ratio (%)” value [1] was under 0.01%.
CKQSYNLRT [CDR3 C] was tested, and the “Relative Hydrolysis Ratio (%)” value [1] was under 0.01% and the “reduction of substrate hydrolysis by elastase-1” value [2] was 22%.
For `CC(C)C[C@H](NC(=O)[C@H](CC(N)=O)NC(=O)[C@H](Cc1ccc(O)cc1)NC(=O)[C@H](CO)NC(=O)[C@H](CCC(N)=O)NC(=O)[C@H](CCCCN)NC(=O)[C@H](CS)NC(=O)CNC(=O)CNC(=O)[C@@H]1CCCN1C(=O)CNC(=O)CNC(=O)[C@H](Cc1ccc(O)cc1)NC(=O)[C@H](CC(=O)O)NC(=O)[C@H](Cc1ccccc1)NC(=O)[C@H](Cc1ccc(O)cc1)NC(=O)[C@H](Cc1ccc(O)cc1)NC(=O)CNC(=O)[C@H](CC(=O)O)NC(=O)[C@H](Cc1c[nH]c2ccccc12)NC(=O)[C@H](CC(=O)O)NC(=O)[C@H](CCCNC(=N)N)NC(=O)[C@H](CCCCN)NC(=O)[C@@H](N)CS)C(=O)N[C@@H](CCCNC(=N)N)C(=O)N[C@H](C(=O)O)[C@@H](C)O` [CDR3 E] (H-CKRDWDGYYFDYGGPGGCKQSYNLRT-OH), the “Relative Hydrolysis Ratio (%)” value [1] was under 0.01%, the Ki [3] was 55.7 µM and the “reduction of hydrolytic activity of thrombin” value [3] was 100%.
With CKRDWDGYYFDY [CDR3 A] the “Relative Hydrolysis Ratio (%)” value [1] was under 0.01%, the Ki [3] was 61.8 µM and the “reduction of hydrolytic activity of thrombin” value [3] was 34%.
